Results taken from US20070129252A1, “2-Halo-6-alkylphenyl-substituted spirocyclic tetramic acid derivatives” (BAYER CROPSCIENCE AKTIENGESELLSCHAFT, priority 2003, published 2007).

Experiments:
Format in all cases: in vivo
[1] = system: Phaedon cochleariae; test: Phaedon larvae test (dip treatment); conditions: 500 ppm, cabbage leaves
Protocol: Phaedon Larvae Test (Dip Treatment) [[[…]]] To produce a suitable preparation of active compound, 1 part by weight of active compound is mixed with the stated amounts of solvent and emulsifier, and the concentrate is diluted with emulsifier-containing water to the desired concentration. Cabbage leaves (Brassica oleracea) are treated by being dipped into the preparation of active compound of the desired concentration and are populated with larvae of the mustard beetle (Phaedon cochleariae) while the leaves are still moist.

[2] = system: sugarbeets; test: Post-emergence test (Example J); conditions: greenhouse, 60 g of a.i./ha, after three weeks
Protocol: (§1) To produce a suitable preparation of active compound, 1 part by weight of active compound is mixed with the stated amount of solvent, the stated amount of emulsifier is added and the concentrate is diluted with water to the desired concentration.
(§2) Test plants of a height of 5-15 cm are sprayed with the preparation of active compound such that the particular amounts of active compound desired are applied per unit area. The concentration of the spray liquor is chosen such that the particular amounts of active compound desired are applied in 1000 l of water/ha.
(§3) After three weeks, the degree of damage in the plants is rated in % damage in comparison to the development of the untreated control.
(§4) 0%=no effect (like untreated control)

[3] = system: Echinochloa; test: Post-emergence test (Example J); conditions: greenhouse, 60 g of a.i./ha, after three weeks
Protocol: as §1, §2, §3, §4

[4] = system: Lolium; test: Post-emergence test (Example J); conditions: greenhouse, 60 g of a.i./ha, after three weeks
Protocol: as §1, §2, §3, §4

[5] = system: Myzus persicae; test: Myzus test (dip treatment); conditions: cabbage leaves
Protocol: Myzus Test (Dip Treatment)
(§5) To produce a suitable preparation of active compound, 1 part by weight of active compound is mixed with the stated amounts of solvent and emulsifier, and the concentrate is diluted with emulsifier-containing water to the desired concentration.
Cabbage leaves (Brassica oleracea), which are heavily infested by the green peach aphid Myzus persicae), are treated by being dipped into the preparation of active compound of the desired concentration.
(§6) After the desired period of time, the kill in % is determined. 100% means that all aphids have been killed; 0% means that none of the aphids have been killed.

[6] = system: Aphis gossypii; test: Aphis gossypii test; conditions: 500 ppm; dip treatment; cotton leaves
Protocol: as §5
Cotton leaves (Gossypium hirsutum), which are heavily infested by the cotton aphid (Aphis gossypii), are treated by being dipped into the preparation of active compound of the desired concentration.
as §6

[7] = system: summer barley; test: Herbicidal post-emergence action, vessel trials with cereals in the greenhouse, use of safeners (Example N); conditions: without safener
Protocol: (§7) Herbicidal Post-Emergence Action
(§8) Seeds of monocotyledonous and dicotyledonous weed and crop plants are placed into sandy loam in wood fibre pots or in plastic pots, covered with soil and cultivated in a greenhouse, during the vegetation period also outdoors outside of the greenhouse, under good growth conditions. 2-3 weeks after sowing, the test plants are treated at the one- to three-leaf stage. The test compounds, formulated as wettable powders (WP) or emulsifiable concentrates (EC) are, in various dosages with a water application rate of 300 l/ha (converted), with wetting agent (0.2 to 0.3%) added, sprayed onto the plants and the surface of the soil. 3-4 weeks after the treatment of the test plants, the effect of the preparations is rated visually in comparison to untreated controls (herbicidal effect in percent (%): 100% effect=the plants have died, 0% effect=like control plants).
(§9) If it is additionally to be tested as to whether safeners can improve the plant compatibility of test substances in the case of crop plants, the following options are used for applying the safener: • seeds of the crop plants are, before sowing, dressed with the safener substance (the amount of safener is stated in percent, based on the weight of the seed) • before the application of the test substances, the crop plants are sprayed with the safener at a certain application rate per hectare (usually 1 day before the application of the test substances) • the safener is applied together with the test substance as a tank mix (the amount of safener is stated in g/ha or as a ratio, based on the herbicide).
(§10) By comparing the effect of the test substances on crop plants without or with safener treatment, it is possible to assess the effect of the safener substance.
(§11) Vessel Trials with Cereals in the Greenhouse
(§12) Mefenpyr applied 1 day prior to the application of herbicide

[8] = system: summer wheat; test: as above; conditions: without safener
Protocol: as §7, §8, §9, §10, §11, §12

[9] = system: Tetranychus urticae; test: Tetranychus test (OP-resistant/dip treatment); conditions: 100 ppm; dip treatment; bean plants (Table H)
Protocol: Tetranychus Test (OP-Resistant/Dip Treatment)
as §5
Bean plants (Phaseolus vulgaris), which are heavily infested by all stages of the greenhouse red spider mite (Tetranychus urticae), are dipped into a preparation of active compound of the desired concentration.
After the desired period of time, the activity in % is determined. 100% means that all spider mites have been killed; 0% means that none of the spider mites have been killed.

[10] = system: sugarbeets; test: Pre-emergence test (Example K); conditions: greenhouse, 30 g of a.i./ha, after three weeks
Protocol: as §1
(§13) Seeds of the test plants are sown in normal soil. After about 24 hours, the soil is sprayed with the preparation of active compound such that the particular amounts of active compound desired are applied per unit area. The concentration of the spray liquor is chosen such that the particular amounts of active compound desired are applied in 1000 l of water/ha.
(§14) After three weeks, the degree of damage to the plants is rated in % damage in comparison to the development of the untreated control.
as §4

[11] = system: Setaria; test: Pre-emergence test (Example K); conditions: greenhouse, 30 g of a.i./ha, after three weeks
Protocol: as §1, §13, §14, §4

[12] = system: Echinochloa; test: Pre-emergence test (Example K); conditions: greenhouse, 30 g of a.i./ha, after three weeks
Protocol: as §1, §13, §14, §4

[13] = system: Lolium; test: Pre-emergence test (Example K); conditions: greenhouse, 30 g of a.i./ha, after three weeks
Protocol: as §1, §13, §14, §4

[14] = system: Meloidogyne incognita; test: Meloidogyne test; conditions: 20 ppm; formation of galls on lettuce roots
Protocol: To produce a suitable preparation of active compound, 1 part by weight of active compound is mixed with the stated amounts of solvent and emulsifier, and the concentrate is diluted with water to the desired concentration.
Vessels are filled with sand, solution of active compound, Meloidogyne incognita egg/larvae suspension and lettuce seeds. The lettuce seeds germinate and the plants develop. On the roots, galls develop.
After the desired period of time, the nematicidal action is determined in % by the formation of galls. 100% means that no galls have been found; 0% means that the number of galls on the treated plants corresponds to that of the untreated control.

[15] = system: Myzus persicae; test: Myzus test (spray treatment); conditions: 100 g/ha, Chinese cabbage discs
Protocol: Myzus Test (Spray Treatment)
as §5
Discs of Chinese cabbage (Brassica pekinensis), which are infested by all stages of the green peach aphid (Myzus persicae), are sprayed with a preparation of active compound of the desired concentration.
After the desired period of time, the effect in % is determined. 100% means that all aphids have been killed; 0% means that none of the aphids have been killed.

[16] = system: Setaria; test: Herbicidal post-emergence action (Example M); conditions: greenhouse, 320 g of a.i./ha, about 3 weeks
Protocol: as §7
(§15) Seeds of monocotyledonous and dicotyledonous weed and crop plants are placed into sandy loam in wood fibre pots, covered with soil and cultivated in a greenhouse under good growth conditions. 2-3 weeks after sowing, the test plants are treated at the one-leaf stage. The test compounds, formulated as wettable powders (WP), are, in various dosages with a water application rate of 600 l/ha (converted), with 0.2% of wetting agent added, sprayed onto the green parts of the plants. After the test plants were kept in the greenhouse under optimum growth conditions for about 3 weeks, the effect of the preparations is rated visually in comparison to untreated controls (herbicidal effect in percent (%): 100% effect=the plants have died, 0% effect=like control plants).

[17] = system: Lolium; test: Herbicidal post-emergence action (Example M); conditions: greenhouse, 320 g of a.i./ha, about 3 weeks
Protocol: as §7, §15

[18] = system: Avena sativa; test: Herbicidal post-emergence action (Example M); conditions: greenhouse, 320 g of a.i./ha, about 3 weeks
Protocol: as §7, §15

[19] = system: Stellaria; test: Herbicidal pre-emergence action (Example L); conditions: greenhouse, 320 g of a.i./ha, 3 weeks
Excerpt: (§16) Herbicidal Pre-Emergence Action
(§17) Seeds of monocotyledonous and dicotyledonous weed and crop plants are placed into sandy loam in wood fibre pots and covered with soil. The test compounds, formulated in the form of wettable powders (WP), are then, in various dosages as aqueous suspension with a water application rate of 600 l/ha (converted), with 0.2% of wetting agent added, applied to the surface of the covering soil.
(§18) After the treatment, the pots are placed in a greenhouse and kept under good growth conditions for the test plants. The visual assessment of the emergence damage on the test plants is carried out after a trial period of 3 weeks by comparison with untreated controls (herbicidal effect in percent (%): 100% effect=the plants have died, 0% effect=like control plants).

[20] = system: Setaria; test: Herbicidal pre-emergence action (Example L); conditions: greenhouse, 320 g of a.i./ha, 3 weeks
Excerpt: as §16, §17, §18

[21] = system: Lolium; test: Herbicidal pre-emergence action (Example L); conditions: greenhouse, 320 g of a.i./ha, 3 weeks
Excerpt: as §16, §17, §18

[22] = system: Avena sativa; test: Herbicidal pre-emergence action (Example L); conditions: greenhouse, 320 g of a.i./ha, 3 weeks
Excerpt: as §16, §17, §18

[23] = system: Sinapis; test: Herbicidal pre-emergence action (Example L); conditions: greenhouse, 320 g of a.i./ha, 3 weeks
Excerpt: as §16, §17, §18

CCc1cc(C)cc(Cl)c1C1=C(O)C2(CCC(OC)CC2)NC1=O (single isomer, unassigned) [Example I-a-4]
Kill rate in % after 7d [1]: 100%
% damage, sugarbeets [2]: 0%
% damage, Echinochloa [3]: 100%
% damage, Lolium [4]: 100%
Kill rate in % after 6d ([5]; 4 ppm): 95%
Kill rate in % after 6d [6]: 80%
summer barley observed (%) ([7]; 12.5 g of a.i./ha): 10%
summer barley observed (%) ([7]; 25 g of a.i./ha): 30%
summer barley observed (%) ([7]; 50 g of a.i./ha): 97%
summer wheat observed (%) ([8]; 12.5 g of a.i./ha): 50%
summer wheat observed (%) ([8]; 25 g of a.i./ha): 98%
Kill rate in % after 7d [9]: 99%
% damage, sugarbeets [10]: 0%
% damage, Setaria [11]: 100%
% damage, Echinochloa [12]: 80%
% damage, Lolium [13]: 100%

CCc1cc(C)cc(Br)c1C1=C(O)C2(CCOCC2)NC1=O [Example I-a-1]
Effect in % after 14d [14]: 80%
Kill rate in % after 6d ([5]; 100 ppm): 75%
Kill rate in % after 5d [15]: 100%
herbicidal effect in percent, Setaria [16]: 80%
herbicidal effect in percent, Lolium [17]: 100%
herbicidal effect in percent, Avena sativa [18]: 100%
herbicidal effect in percent, Stellaria [19]: 100%
herbicidal effect in percent, Setaria [20]: 90%
herbicidal effect in percent, Lolium [21]: 80%
herbicidal effect in percent, Avena sativa [22]: 70%
herbicidal effect in percent, Sinapis [23]: 70%
